For assay [1], the target named is T1, Serine/threonine-protein kinase TAO2 (Homo sapiens) (UniProt Q9UL54).
T1 sequence (whole entry): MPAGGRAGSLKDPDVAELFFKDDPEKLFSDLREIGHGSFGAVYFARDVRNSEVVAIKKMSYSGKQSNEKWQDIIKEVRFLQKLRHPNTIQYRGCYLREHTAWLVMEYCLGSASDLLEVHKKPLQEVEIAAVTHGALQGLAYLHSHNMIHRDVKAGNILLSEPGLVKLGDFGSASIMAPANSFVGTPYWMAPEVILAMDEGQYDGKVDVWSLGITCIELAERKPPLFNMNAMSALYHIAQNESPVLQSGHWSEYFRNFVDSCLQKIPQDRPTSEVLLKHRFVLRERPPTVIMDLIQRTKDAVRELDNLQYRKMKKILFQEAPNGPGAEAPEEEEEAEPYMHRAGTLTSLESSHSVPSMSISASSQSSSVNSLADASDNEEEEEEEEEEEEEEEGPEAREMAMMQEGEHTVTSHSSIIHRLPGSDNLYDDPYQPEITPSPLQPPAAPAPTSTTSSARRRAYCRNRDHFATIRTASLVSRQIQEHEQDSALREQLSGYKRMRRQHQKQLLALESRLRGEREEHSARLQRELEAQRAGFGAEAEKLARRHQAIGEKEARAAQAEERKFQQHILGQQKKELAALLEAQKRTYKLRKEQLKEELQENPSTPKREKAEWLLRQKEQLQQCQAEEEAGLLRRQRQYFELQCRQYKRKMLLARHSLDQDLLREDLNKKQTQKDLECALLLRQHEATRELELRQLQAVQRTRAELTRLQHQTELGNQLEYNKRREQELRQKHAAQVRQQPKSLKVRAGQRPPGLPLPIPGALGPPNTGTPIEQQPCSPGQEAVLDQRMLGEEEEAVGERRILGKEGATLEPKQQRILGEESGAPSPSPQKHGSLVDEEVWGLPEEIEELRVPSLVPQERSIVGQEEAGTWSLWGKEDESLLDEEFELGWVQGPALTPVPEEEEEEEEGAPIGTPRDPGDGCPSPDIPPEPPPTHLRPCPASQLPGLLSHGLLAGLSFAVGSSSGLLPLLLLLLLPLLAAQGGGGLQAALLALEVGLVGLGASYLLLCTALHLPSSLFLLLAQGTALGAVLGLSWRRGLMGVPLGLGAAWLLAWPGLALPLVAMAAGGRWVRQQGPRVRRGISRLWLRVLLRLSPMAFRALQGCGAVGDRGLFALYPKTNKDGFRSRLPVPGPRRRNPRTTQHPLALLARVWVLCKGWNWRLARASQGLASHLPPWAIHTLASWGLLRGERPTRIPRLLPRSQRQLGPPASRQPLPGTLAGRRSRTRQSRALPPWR
The following applies: at 10 µM.

Assay [2] concerns the target T2, Serine/threonine-protein kinase Nek1 (Homo sapiens) (UniProt Q96PY6).
T2 sequence (whole entry): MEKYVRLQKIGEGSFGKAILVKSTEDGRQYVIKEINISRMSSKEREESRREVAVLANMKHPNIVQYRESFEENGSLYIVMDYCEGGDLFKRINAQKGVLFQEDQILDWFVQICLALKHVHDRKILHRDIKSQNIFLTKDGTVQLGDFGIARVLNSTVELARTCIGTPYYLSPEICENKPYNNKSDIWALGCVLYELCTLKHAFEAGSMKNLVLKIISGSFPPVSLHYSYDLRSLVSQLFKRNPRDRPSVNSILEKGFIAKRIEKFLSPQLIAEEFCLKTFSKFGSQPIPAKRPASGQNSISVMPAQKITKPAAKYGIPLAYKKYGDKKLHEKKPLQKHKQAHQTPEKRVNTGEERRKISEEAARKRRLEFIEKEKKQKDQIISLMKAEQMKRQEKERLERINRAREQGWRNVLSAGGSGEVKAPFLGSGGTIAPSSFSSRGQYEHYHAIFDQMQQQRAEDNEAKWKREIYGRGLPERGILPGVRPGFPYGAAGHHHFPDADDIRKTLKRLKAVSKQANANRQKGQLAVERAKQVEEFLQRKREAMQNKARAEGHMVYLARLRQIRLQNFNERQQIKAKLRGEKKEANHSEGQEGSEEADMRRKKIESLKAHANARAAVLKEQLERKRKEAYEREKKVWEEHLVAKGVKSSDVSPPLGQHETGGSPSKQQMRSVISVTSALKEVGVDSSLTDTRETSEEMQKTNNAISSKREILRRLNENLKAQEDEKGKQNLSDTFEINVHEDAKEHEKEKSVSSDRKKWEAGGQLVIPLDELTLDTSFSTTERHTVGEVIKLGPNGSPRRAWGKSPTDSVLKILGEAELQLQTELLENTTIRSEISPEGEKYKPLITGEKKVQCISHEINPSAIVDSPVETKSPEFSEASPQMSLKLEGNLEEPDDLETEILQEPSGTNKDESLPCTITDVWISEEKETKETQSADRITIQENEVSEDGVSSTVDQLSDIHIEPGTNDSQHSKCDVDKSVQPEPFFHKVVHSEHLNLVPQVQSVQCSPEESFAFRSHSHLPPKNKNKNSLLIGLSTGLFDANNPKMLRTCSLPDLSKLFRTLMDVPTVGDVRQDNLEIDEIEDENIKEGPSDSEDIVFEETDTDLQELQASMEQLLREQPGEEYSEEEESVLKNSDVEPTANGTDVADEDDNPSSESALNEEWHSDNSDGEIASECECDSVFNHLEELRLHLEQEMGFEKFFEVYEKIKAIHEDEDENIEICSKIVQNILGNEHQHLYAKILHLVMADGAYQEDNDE
Nature of the assay: Selectivity interaction (KinomeScan (DiscoverX)) EUB0000695a NEK1. The following applies: at 100 nM.

Assay [3] addresses T3, Dual specificity tyrosine-phosphorylation-regulated kinase 2 (Homo sapiens) (UniProt Q92630).
T3 sequence (whole entry): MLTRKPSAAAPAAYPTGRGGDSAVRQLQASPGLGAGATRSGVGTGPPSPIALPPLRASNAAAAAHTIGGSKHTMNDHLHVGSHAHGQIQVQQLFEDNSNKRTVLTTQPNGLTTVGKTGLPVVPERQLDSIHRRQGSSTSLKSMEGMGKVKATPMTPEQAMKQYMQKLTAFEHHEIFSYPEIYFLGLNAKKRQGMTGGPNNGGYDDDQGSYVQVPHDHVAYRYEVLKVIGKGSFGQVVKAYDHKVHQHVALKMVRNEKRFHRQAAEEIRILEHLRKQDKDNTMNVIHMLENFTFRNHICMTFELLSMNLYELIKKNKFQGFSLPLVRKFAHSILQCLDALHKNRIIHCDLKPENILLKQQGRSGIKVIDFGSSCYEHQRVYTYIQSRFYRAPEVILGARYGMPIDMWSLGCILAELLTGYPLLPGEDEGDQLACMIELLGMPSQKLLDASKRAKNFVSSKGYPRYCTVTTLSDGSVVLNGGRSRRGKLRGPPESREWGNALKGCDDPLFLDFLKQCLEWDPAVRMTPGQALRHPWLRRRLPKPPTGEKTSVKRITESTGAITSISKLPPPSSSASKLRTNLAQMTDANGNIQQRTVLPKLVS
Nature of the assay: Selectivity interaction (KinomeScan (DiscoverX)) EUB0000618a DYRK2. The following applies: at 10 µM.

For three molecules, % of control results are on record in ChEMBL document CHEMBL5465560, “Selectivity Literature for EUbOPEN Chemogenomic Library” (2024).

Molecule `Cc1cc([C@@H](C)Nc2ccccc2C(=O)O)c2nc(N3CCOCC3)cc(=O)n2c1` [AZD-6482] yielded a % of control in assay [1] of 94%.
In assay [2], `Cc1cc(F)c(C(=O)Nc2cccc(-c3nncn3C(C)C)n2)cc1-n1cnc(C2CC2)c1` came in with a % of control of 100%.
In the case of `O[C@H]1CC[C@H](Nc2ncc3nc(Nc4c(F)cc(F)cc4F)n([C@H]4CCOC4)c3n2)CC1`, the % of control in assay [3] came to 100%.
